# According to patent EP0776896A1, “Heterocyclic compounds and their use” (priority 1995, dated 1997):
# pIC50: −log10 of the molar value. Read-outs that look alike come from different tables or passages of the source.
# Legend:
# [1] = target: muscarinic acetylcholine receptors; test: Inhibition of specific binding of ^3H-Oxotremorine-M to rat cortex homogenate; parameters: species or system male Wistar rats; conditions: 1.0 nM ^3H-Oxotremorine, 30 min at 25°C, read-out: ^3H-Oxo-M IC50
# Source text: The pharmacological properties of the compounds of the invention can be illustrated by determining their capability to inhibit the specific binding of ^3H-Oxotremorine-M (^3H-Oxo). Birdsdall N.J.M., Hulme E.C., and Burgen A.S.V. (1980). "The Character of Muscarinic Receptors in Different Regions of the Rat Brain". Proc. Roy. Soc. London (Series B) 207,1.
# ^3H-Oxo labels muscarinic receptor in the CNS (with a preference for agonist domains of the receptors). Three different sites are labeled by ^3H-Oxo. […] Using the present experimental conditions only the high and medium affinity sites are determined.
# The inhibitory effects of compounds on ^3H-oxo binding reflects the affinity for muscarinic acetylcholine receptors.
# (§1) All preparations are performed at 0-4°C unless otherwise indicated. Fresh cortex (0.1-1 g) from male Wistar rats (150-250 g) is homogenized for 5-10 s in 10 mL 20 nM Hepes pH: 7.4, with an Ultra-Turrax homogenizer. The homogenizer is rinsed with 10 mL of buffer and the combined suspension centrifuged for 15 min. at 40,000 x g. The pellet is washed three times with buffer. In each step the pellet is homogenized as before in 2 x 10 mL of buffer and centrifuged for 10 min. at 40,000 x g.
# The final pellet is homogenized in 20 mM Hepes pH: 7.4 (100 mL per g of original tissue) and used for binding assay. Aliquots of 0.5 mL is added 25 µL of test solution and 25 µL of ^3H-Oxotremorine (1.0 nM, final concentration) mixed and incubated for 30 min. at 25°C. Non-specific binding is determined in triplicate using arecoline (1 µg/mL, final concentration) as the test substance. After incubation samples are added 5 mL of ice-cold buffer and poured directly onto Whatman GF/C glass fiber filters under suction and immediately washed 2 times with 5 mL of ice-cold buffer. The amount of radioactivity on the filters are determined by conventional liquid scintillation counting. Specific binding is total binding minus non specific binding.
# Test substances are dissolved in 10 mL water (if necessary heated on a steam-bath for less than 5 min.) at a concentration of 2.2 mg/mL. 25-75% inhibition of specific binding must be obtained before calculation of IC50. The test value will be given as IC50 (the concentration (nM) of the test substance which inhibits the specific binding of ^3H-oxo by 50%). IC50 = (applied test substance concentration) x(Cx/Co-Cx)nM where Co is specific binding in control assays and Cx is the specific binding in the test assay. (The calculations assume normal mass-action kinetics).
# [2] = target: T1, muscarinic receptors (M1-site, pirenzepine sensitive site) (Rattus norvegicus, UniProt P08482); test: Inhibition of ^3HPRZ (pirenzepine) binding to rat cerebral cortex membranes; parameters: species or system male Wistar rats; conditions: 1.0 nM ^3HPRZ, 60 min at 20°C; for pIC50: read-out: ^3HPRZ IC50; for IC50: ^3HPRZ IC50,nM
# T1 construct: Fresh cortex (0.1-1 9) from male Wistar rats (150-200 g) is homogenized; from tissue; host or cells: rat cerebral cortex membranes
# T1 sequence (P08482 1-460): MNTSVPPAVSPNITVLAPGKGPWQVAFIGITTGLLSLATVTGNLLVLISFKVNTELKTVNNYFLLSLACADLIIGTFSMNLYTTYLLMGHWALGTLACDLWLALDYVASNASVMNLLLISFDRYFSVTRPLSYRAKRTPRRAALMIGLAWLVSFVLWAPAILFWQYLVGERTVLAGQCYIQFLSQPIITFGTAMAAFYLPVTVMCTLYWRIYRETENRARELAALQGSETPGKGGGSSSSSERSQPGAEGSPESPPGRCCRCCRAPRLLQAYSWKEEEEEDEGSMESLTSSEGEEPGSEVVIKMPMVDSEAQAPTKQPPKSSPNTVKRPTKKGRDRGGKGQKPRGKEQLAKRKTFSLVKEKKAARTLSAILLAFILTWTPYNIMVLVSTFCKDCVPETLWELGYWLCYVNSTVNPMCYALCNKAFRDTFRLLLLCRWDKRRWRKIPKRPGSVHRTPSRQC
# Method: Furthermore the pharmacological properties of the compounds of the invention can also be illustrated by determining their capability to inhibit ^3HPRZ (pirenzepine, [N-methyl^-3H]) binding to rat cerebral cortex membranes.
# Pirenzepine binds selectively to subtype of muscarinic receptors. Historically the type is named the M1-site, whereas pirenzepine sensitive site would be more appropriate. Although selective for M1-sites pirenzepine also interact with M2-sites.
# as §1, with “cortex (0.1-1 9) from male” for “cortex (0.1-1 g) from male”, “Wistar rats (150-200 g) is” for “Wistar rats (150-250 g) is”, “mL 20 mM Hepes pH:” for “mL 20 nM Hepes pH:”, “rinsed with 2 x 10 mL” for “rinsed with 10 mL”, “before in 3 x 10” for “before in 2 x 10”
# The final pellet is homogenized in 20 mM Hepes pH: 7.4 (100 mL per g of original tissue) and used for binding assay. Aliquots of 0.5 mL is added 20 µL of test solution and 25 µL of ^3HPRZ (1.0 nM, final conc.), mixed and incubated for 60 min. at 20°C. Non-specific binding is determined in triplicate using atropine (1.0 µg/mL, final conc.) as the test substance. After incubation samples are added 5 mL of ice-cold buffer and poured directly onto Whatman GF/C glass fiber filters under suction and immediately washed 2 times with 5 mL of ice-cold buffer. The amount of radioactivity on the filters are determined by conventional liquid scintillation counting. Specific binding is total binding minus non-specific binding.
# Test substances are dissolved in 10 mL water, at a concentration of 0.22 mg/mL. 25-75% inhibition of specific binding must be obtained before calculation of IC50.
# The test value will be given as IC50 (the concentration (nM) of the test substance which inhibits the specific binding of ^3HPRZ by 50%). IC50 = (applied test substance concentration) x(Cx/Co-Cx)nM where Co is specific binding in control assays and Cx is the specific binding in the test assay. (The calculations assume normal mass-action kinetics).
SMILES,pIC50 [1],pIC50 [2],IC50 [2] [nM]
"CCCCOc1nsnc1C1CC2CCC1NC2 (single isomer, unassigned) [Compound 4, ENDO 2-aza-6-(4-butyloxy-1,2,5-thiadiaz-3-yl)-bicyclo[2.2.2]octane]",8.38,7.77,
"CCCCOc1nsnc1C1CC2CCC1NC2 (single isomer, unassigned) [Compound 5, EXO 2-aza-6-(4-butyloxy-1,2,5-thiadiaz-3-yl)bicyclo[2.2.2]octane]",6.84,6.86,
"CCCCCCOc1nsnc1C1CC2CCC1N(C)C2 (single isomer, unassigned) [Compound 7, ENDO 2-Aza-6-(4-hexyloxy-1,2,5-thiadiaz-3-yl)-2-methylbicyclo[2.2.2]octane]",,7.68,
"CCCCCCOc1nsnc1C1CC2CCC1N(C)C2 (single isomer, unassigned) [Compound 8, EXO 2-Aza-6-(4-hexyloxy-1,2,5-thiadiaz-3-yl)-2-methylbicyclo[2.2.2]octane]",,7.24,
"CCCCSc1nsnc1C1CC2CCC1NC2 (stereo not drawn) [Compound 9, ENDO 2-aza-6-(4-butylthio-1,2,5-thiadiaz-3-yl)bicyclo[2.2.2]octane]",8.70,8.57,
"CCCSc1nsnc1C1CC2CCC1NC2 (stereo not drawn) [Compound 11, ENDO 2-Aza-6-(4-propylthio-1,2,5-thiadiaz-3-yl)bicyclo[2.2.2]octane]",8.39,7.89,
"CCCOc1nsnc1C1CC2CCC1NC2 (stereo not drawn) [Compound 13, EXO 2-Aza-6-(4-propoxy-1,2,5-thiadiaz-3-yl)bicyclo[2.2.2]octane]",6.58,6.76,
"CSc1nsnc1C1CC2CCC1NC2 (stereo not drawn) [Compound 14, EXO 2-Aza-6-(4-methylthio-1,2,5-thiadiaz-3-yl)bicyclo[2.2.2]octane]",6.16,6.44,
"CCCCCSc1nsnc1C1CC2CCC1NC2 (stereo not drawn) [Compound 15, ENDO 2-aza-6-(4-thiopentyl-1,2,5-thiadiaz-3-yl)bicyclo[2.2.2]octane]",8.47,,5
"CCCCCSc1nsnc1C1CC2CCC1NC2 (stereo not drawn) [Compound 16, EXO 2-aza-6-(4-pentylthio-1,2,5-thiadiaz-3-yl)-bicyclo[2.2.2]octane]",7.08,,45
CC(C)CCCSc1nsnc1C1CC2CCC1NC2 (stereo not drawn) [Compound 17],,6.77,
"CC(C)CCCSc1nsnc1C1CC2CCC1NC2 (stereo not drawn) [Compound 18, ENDO 2-Aza-6-(4-((4-methylpentyl)thio)-1,2,5-thiadiaz-3-yl)bicyclo[2.2.2]octane]",,7.89,
CSc1nsnc1C1CC2CCC1NC2 (stereo not drawn) [Compound 19],7.74,6.89,
"FC(F)(F)CCCSc1nsnc1C1CC2CCC1NC2 (stereo not drawn) [Compound 20, ENDO 2-Aza-6-(4-((4,4,4-trifluorobutyl)thio)-1,2,5-thiadiaz-3-yl)-bicyclo[2.2.2]octane]",,8.26,
"FC(F)(F)c1ccc(CSc2nsnc2C2CC3CCC2NC3)cc1 (stereo not drawn) [Compound 22, EXO 2-Aza-6-(4-(((4-trifluoromethyl)phenyl)methylthio)-1,2,5-thiadiaz-3-yl)-bicyclo[2.2.2]octane]",,6.35,
"N#Cc1ccc(CSc2nsnc2C2CC3CCC2NC3)cc1 (stereo not drawn) [Compound 23, ENDO 2-Aza-6-(4-((4-cyanophenyl)methylthio)-1,2,5-thiadiaz-3-yl)-bicyclo[2.2.2]octane]",7.59,,36
"N#Cc1ccc(CSc2nsnc2C2CC3CCC2NC3)cc1 (stereo not drawn) [Compound 24, EXO 2-Aza-6-(4-((4-cyanophenyl)methylthio)-1,2,5-thiadiaz-3-yl)-bicyclo[2.2.2]octane]",7.22,,91
"N#Cc1ccc(CSc2nsnc2C2CC3CCC2NC3)s1 (stereo not drawn) [Compound 25, ENDO 2-Aza-6-(4-((5-cyanothien-2-yl)methylthio)-1,2,5-thiadiaz-3-yl)-bicyclo[2.2.2]octane]",,8.21,
"N#Cc1ccc(CSc2nsnc2C2CC3CCC2NC3)s1 (stereo not drawn) [Compound 26, EXO 2-Aza-6-(4-((5-cyanothien-2-yl)methylthio)-1,2,5-thiadiaz-3-yl)-bicyclo[2.2.2]octane]",,7.70,
"CCCCCCSc1nsnc1C1CC2CCC1NC2 (stereo not drawn) [Compound 27, EXO 2-Aza-6-(4-hexylthio-1,2,5-thiadiaz-3-yl)bicyclo[2.2.2]octane]",,8.64,
"CCCCCCSc1nsnc1C1CC2CCC1NC2 (stereo not drawn) [Compound 28, EXO 2-Aza-6-(4-hexylthio-1,2,5-thiadiaz-3-yl)bicyclo[2.2.2]octane]",,7.21,
"CCCCCOc1nsnc1C1CC2CCC1NC2 (stereo not drawn) [Compound 30, ENDO 2-aza-6-(4-pentoxy-1,2,5-thiadiaz-3-yl)-bicyclo[2.2.2]octane]",,7.82,
"CCCCCOc1nsnc1C1CC2CCC1NC2 (stereo not drawn) [Compound 31, EXO 2-aza-6-(4-pentoxy-1,2,5-thiadiaz-3-yl)bicyclo[2.2.2]octane]",,7.10,
"FC(F)(F)c1ccc(COc2nsnc2C2CC3CCC2NC3)cc1 (stereo not drawn) [Compound 32, EXO 2-Aza-6-(4-((4-trifluoromethylphenyl)methoxy)-1,2,5-thiadiaz-3-yl)-bicyclo[2.2.2]octane]",,6.61,
"FC(F)(F)c1ccc(COc2nsnc2C2CC3CCC2NC3)cc1 (stereo not drawn) [Compound 33, EXO 2-Aza-6-(4-((4-trifluoromethylphenyl)methoxy)-1,2,5-thiadiaz-3-yl)-bicyclo[2.2.2]octane]",,6.56,
